Measured values reported in paper PMC7481482, “Development of Anthraquinone Derivatives as Ectonucleoside Triphosphate Diphosphohydrolase (NTPDase) Inhibitors With Selectivity for NTPDase2 and NTPDase3” (Frontiers in Pharmacology, 2020).

Assays:
Format in all cases: biochemical
human NTPDase8 = molecular target: T1, human NTPDase8 (Homo sapiens, UniProt Q5MY95); assay: Malachite green assay, human NTPDase8; conditions: for inhibition at 2 µM: read-out: % inhibition at 2 μM concentration, NTPDase8
T1 construct: expressed in transfected cells; host or cells: COS-7 cells (membrane preparation)
T1 sequence (Q5MY95 1-495): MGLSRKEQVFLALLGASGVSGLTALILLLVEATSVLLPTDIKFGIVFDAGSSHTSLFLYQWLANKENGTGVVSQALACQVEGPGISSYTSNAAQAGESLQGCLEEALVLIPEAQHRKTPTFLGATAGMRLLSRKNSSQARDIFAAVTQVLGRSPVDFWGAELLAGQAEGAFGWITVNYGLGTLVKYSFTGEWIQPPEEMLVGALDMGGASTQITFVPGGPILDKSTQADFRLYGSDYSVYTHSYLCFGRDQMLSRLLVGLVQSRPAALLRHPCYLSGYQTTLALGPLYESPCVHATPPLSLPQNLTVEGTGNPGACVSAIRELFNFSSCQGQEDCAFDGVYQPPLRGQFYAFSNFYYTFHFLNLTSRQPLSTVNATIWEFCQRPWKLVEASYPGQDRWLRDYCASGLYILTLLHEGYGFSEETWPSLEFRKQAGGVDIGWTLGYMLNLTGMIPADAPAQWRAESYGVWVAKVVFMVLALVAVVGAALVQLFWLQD
Method: (§1) Membrane preparations expressing human NTPDase1, -2, -3, or -8, respectively, were obtained as previously described ([Sévigny et al., 1997]; [Cogan et al., 1999]; [Kukulski et al., 2005]; [Lecka et al., 2013]; [Lee et al., 2018]). Enzyme inhibition assays were performed using the malachite green assay in analogy to published procedures with some modifications ([Dou et al., 2018]). The reaction buffer contained 10 mM HEPES, 2 mM CaCl2, and 1 mM MgCl2 (pH 7.4) in a final volume of 50 μL in transparent 96-well half-area plates. The compounds were initially tested at a final concentration of 2 µM using a COS-7-cell membrane preparation expressing the appropriate NTPDase isoenzyme (protein amount: 143 ng for NTPDase1, 175 ng for NTPDase2, 152 ng for NTPDase3, and 175 ng for NTPDase8). Preincubated of the enzyme preparations was perfomred at 37°C in the presence or absence of test compounds with gentle shaking (Eppendorf Thermomixer comfort at 500 rpm) for 5 min. […] ([Kukulski et al., 2005]). After 15 min of incubation at 37°C with gentle shaking, the reaction was stopped by the addition of the detection reagents (20 µL malachite green solution, 0.6 mM, and 30 µL of ammonium molybdate solution, 20 mM, in 1.5 M sulfuric acid). The released inorganic phosphate was quantified after 20 min of gentle shaking at 25°C by measuring the absorption of the malachite green-phosphomolybdate complex at 600 nm using a BMG PheraStar FS plate reader (BMG Labtech GmbH, Ortenberg, Germany). The corrected absorption was calculated by subtracting the absorption of the negative control samples, which were incubated with previously denatured enzyme (90°C, 15 min). Full concentration-inhibition curves were determined with inhibitor concentrations ranging from 0.03 to 30 µM in the presence of 2% DMSO. Inhibition-type experiments were performed with 25, 50, 100, 150 and 200 µM ATP as substrate for NTPDase2 in the presence of inhibitor 20 (0, 0.25, 0.5, and 1 µM) and 25, 50, 100 and 150 µM ATP substrate for NTPDase3 and compound 42 (0.25, 0.5, and 1 µM). For all of the presented data, at least three independent experiments were performed, and IC50 values were calculated by GraphPad Prism 8 software.
(§2) Inhibition of human NTPDases was performed using the malachite green assay, which was established on a robotic system (Z’ factors > 0.70) ([Baykov et al., 1988]; [Fiene et al., 2015]). The malachite green assay enables the detection of the phosphate produced by the enzymatic hydrolysis of nucleotides. A fixed substrate concentration of 50 µM ATP for NTPDase1 and 100 µM for NTPDase2, -3, and -8 was employed. Test compounds were initially screened at a concentration of 2 μM. […] A total of 48 synthesized anthraquinone derivatives including 14 new compounds not previously described in the literature were evaluated for their inhibitory activity at human NTPDase1, -2, -3, and -8 (for results see Table 1).

human NTPDase1 = molecular target: T2, human NTPDase1 (Homo sapiens, UniProt P49961); assay: Malachite green assay, human NTPDase1; conditions: 2 μM compound, 50 µM ATP, COS-7 membrane preparation; for inhibition at 2 µM: read-out: % inhibition at 2 μM concentration, NTPDase1
T2 construct: expressed in transfected cells; host or cells: COS-7 cells (membrane preparation)
T2 sequence (P49961 1-510): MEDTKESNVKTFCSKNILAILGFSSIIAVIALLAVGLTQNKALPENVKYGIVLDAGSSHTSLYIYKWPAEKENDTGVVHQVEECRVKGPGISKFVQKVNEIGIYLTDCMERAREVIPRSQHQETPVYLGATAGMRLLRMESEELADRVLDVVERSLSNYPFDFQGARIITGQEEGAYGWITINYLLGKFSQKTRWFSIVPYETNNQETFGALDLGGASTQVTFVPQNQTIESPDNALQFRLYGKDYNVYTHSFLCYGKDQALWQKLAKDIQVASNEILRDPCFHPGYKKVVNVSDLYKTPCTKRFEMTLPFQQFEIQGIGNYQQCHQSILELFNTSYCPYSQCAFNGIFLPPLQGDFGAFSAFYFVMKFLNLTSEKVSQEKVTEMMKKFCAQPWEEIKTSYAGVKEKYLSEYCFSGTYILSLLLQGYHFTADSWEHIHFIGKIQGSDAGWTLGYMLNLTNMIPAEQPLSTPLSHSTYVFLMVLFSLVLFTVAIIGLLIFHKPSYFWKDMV
Method: as §1, §2

human NTPDase2 = molecular target: T3, human NTPDase2 (Homo sapiens, UniProt Q9Y5L3); assay: Malachite green assay, human NTPDase2; conditions: 100 µM ATP, COS-7 membrane preparation; for inhibition at 2 µM: read-out: % inhibition at 2 μM concentration, NTPDase2; for IC50: read-out: IC50 ± SEM, NTPDase2
T3 construct: expressed in transfected cells; host or cells: COS-7 cells (membrane preparation)
T3 sequence (Q9Y5L3 1-495): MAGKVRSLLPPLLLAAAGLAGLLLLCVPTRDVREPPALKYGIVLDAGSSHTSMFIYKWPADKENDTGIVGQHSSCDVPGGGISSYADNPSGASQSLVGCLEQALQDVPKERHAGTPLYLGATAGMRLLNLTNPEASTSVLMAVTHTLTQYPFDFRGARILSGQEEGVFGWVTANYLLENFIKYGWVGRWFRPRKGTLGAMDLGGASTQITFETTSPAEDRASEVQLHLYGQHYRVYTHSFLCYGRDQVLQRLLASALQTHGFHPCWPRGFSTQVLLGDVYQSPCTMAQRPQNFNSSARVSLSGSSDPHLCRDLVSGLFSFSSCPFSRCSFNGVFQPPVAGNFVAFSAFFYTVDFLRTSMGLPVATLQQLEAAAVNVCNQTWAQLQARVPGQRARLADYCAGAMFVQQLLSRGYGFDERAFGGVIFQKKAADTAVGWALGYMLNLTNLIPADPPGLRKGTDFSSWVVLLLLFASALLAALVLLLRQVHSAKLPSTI
Method: as §1, §2

human NTPDase3 = molecular target: T4, human NTPDase3 (Homo sapiens, UniProt O75355); assay: Malachite green assay, human NTPDase3; conditions: 100 µM ATP, COS-7 membrane preparation; for IC50: read-out: IC50 ± SEM, NTPDase3; for inhibition at 2 µM: 2 μM compound, read-out: % inhibition at 2 μM concentration, NTPDase3
T4 construct: expressed in transfected cells; host or cells: COS-7 cells (membrane preparation)
T4 sequence (O75355 1-529): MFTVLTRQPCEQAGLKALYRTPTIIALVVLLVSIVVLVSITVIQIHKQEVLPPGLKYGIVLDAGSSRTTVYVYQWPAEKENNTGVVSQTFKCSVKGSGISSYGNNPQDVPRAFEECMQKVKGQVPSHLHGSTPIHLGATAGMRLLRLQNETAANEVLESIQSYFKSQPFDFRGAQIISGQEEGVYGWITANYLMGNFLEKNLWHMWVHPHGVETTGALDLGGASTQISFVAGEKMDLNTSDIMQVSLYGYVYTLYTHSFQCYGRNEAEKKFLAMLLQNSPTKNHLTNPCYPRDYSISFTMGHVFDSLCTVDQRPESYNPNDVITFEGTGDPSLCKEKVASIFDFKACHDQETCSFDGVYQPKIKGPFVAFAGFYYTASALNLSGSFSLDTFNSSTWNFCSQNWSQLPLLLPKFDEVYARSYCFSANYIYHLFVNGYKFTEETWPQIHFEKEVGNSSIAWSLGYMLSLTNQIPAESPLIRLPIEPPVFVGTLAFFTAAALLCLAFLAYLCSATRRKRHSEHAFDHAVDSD
Method: as §1, §2

[1] = 2 μM compound, 100 µM ATP, COS-7 membrane preparation

| Compound | inhibitory activity at NTPDase8 (in words) (human NTPDase8) | % inhibition at 2 μM concentration, NTPDase8 (human NTPDase8; [1]) | % inhibition at 2 μM concentration, NTPDase1 (human NTPDase1) | % inhibition at 2 μM concentration, NTPDase2 (human NTPDase2; 2 μM compound) | IC50 (human NTPDase3) [µM] | inhibition at 2 µM (human NTPDase8; [1]) [%] | inhibition at 2 µM (human NTPDase1) [%] | inhibition at 2 µM (human NTPDase2; 2 μM compound) [%] | inhibition at 2 µM (human NTPDase3) [%] | IC50 (human NTPDase2) [µM] |
| --- | --- | --- | --- | --- | --- | --- | --- | --- | --- | --- |
| Nc1c(S(=O)(=O)O)cc(Nc2ccc(Nc3nc(Cl)nc(Nc4cccc(S(=O)(=O)O)c4)n3)c(S(=O)(=O)O)c2)c2c1C(=O)c1ccccc1C2=O [Compound 5, reactive blue-2, reference compound] | inactive | (-8) % | (17) % | (42) % | 0.942 ± 0.024 | – | – | – | – | – |
| Nc1c(S(=O)(=O)O)cc(NCc2ccccc2)c2c1C(=O)c1ccccc1C2=O [Compound 12] | – | – | – | – | – | 3 | -10 | 11 | 6 | – |
| Nc1c(S(=O)(=O)O)cc(NCCc2ccccc2)c2c1C(=O)c1ccccc1C2=O [Compound 13] | – | – | – | – | – | -3 | -12 | 12 | -3 | – |
| Nc1c(S(=O)(=O)O)cc(Nc2ccccc2)c2c1C(=O)c1ccccc1C2=O [Compound 14] | – | – | – | – | – | -15 | -13 | 15 | -10 | – |
| Cc1ccc2ccccc2c1Nc1cc(S(=O)(=O)O)c(N)c2c1C(=O)c1ccccc1C2=O [Compound 16] | – | – | – | – | – | 3 | 3 | – | -21 | 5.62 ± 0.72 |
| Nc1c(S(=O)(=O)O)cc(Nc2cccc3cccc(S(=O)(=O)O)c23)c2c1C(=O)c1ccccc1C2=O [Compound 17] | – | – | – | – | 1.64 ± 0.26 | -11 | -1 | 15 | – | – |
| Nc1c(S(=O)(=O)O)cc(Nc2ccc3cc(C(=O)O)ccc3c2)c2c1C(=O)c1ccccc1C2=O [Compound 19] | – | – | – | – | 4.72 ± 0.4 | -35 | 0 | 13 | – | – |
| Nc1c(S(=O)(=O)O)cc(Nc2cccc(F)c2)c2c1C(=O)c1ccccc1C2=O [Compound 21] | – | – | – | – | – | -1 | -8 | 15 | 0 | – |
| Nc1c(S(=O)(=O)O)cc(Nc2cccc(Br)c2)c2c1C(=O)c1ccccc1C2=O [Compound 22] | – | – | – | – | 8.96 ± 1.08 | -26 | -4 | 12 | – | – |
| Nc1c(S(=O)(=O)O)cc(Nc2cccc([N+](=O)[O-])c2)c2c1C(=O)c1ccccc1C2=O [Compound 24] | – | – | – | – | 15.3 ± 2.5 | 3 | -32 | 19 | – | – |
| Nc1ccc(Nc2cc(S(=O)(=O)O)c(N)c3c2C(=O)c2ccccc2C3=O)cc1 [Compound 25] | – | – | – | – | – | -12 | -19 | 17 | -25 | – |
| Nc1c(S(=O)(=O)O)cc(Nc2cccc(C(=O)O)c2)c2c1C(=O)c1ccccc1C2=O [Compound 26] | – | – | – | – | 3.1 ± 0.45 | -17 | -17 | 2 | – | – |
| Nc1cc(Nc2cc(S(=O)(=O)O)c(N)c3c2C(=O)c2ccccc2C3=O)ccc1S(=O)(=O)O [Compound 31] | – | – | – | – | 4.26 ± 0.54 | -19 | -15 | 1 | – | – |
| Nc1ccc(Nc2cc(S(=O)(=O)O)c(N)c3c2C(=O)c2ccccc2C3=O)cc1S(=O)(=O)O [Compound 32] | – | – | – | – | 1.73 ± 0.55 | -20 | 10 | 5 | – | – |
| Nc1c(S(=O)(=O)O)cc(Nc2ccc(O)c(C(=O)O)c2)c2c1C(=O)c1ccccc1C2=O [Compound 33, 1-amino-4-(3-carboxy-4-hydroxyphenylamino)-9,10-dioxo-9,10-dihydroanthracene-2-sulfonate] | – | – | – | – | 0.723 ± 0.032 | -9 | -12 | 12 | – | – |
| Nc1c(S(=O)(=O)O)cc(Nc2ccc(Cl)cc2C(=O)O)c2c1C(=O)c1ccccc1C2=O [Compound 36] | – | – | – | – | 4.04 ± 0.47 | -17 | -20 | -2 | – | – |
| Cc1cc(Cl)ccc1Nc1cc(S(=O)(=O)O)c(N)c2c1C(=O)c1ccccc1C2=O [Compound 38] | – | – | – | – | – | -1 | 2 | – | 9 | 5.45 ± 0.7 |
